Assay results reported in patent US12077503B2, “Substituted cyclic amides and their use as herbicides” (FMC CORPORATION, priority 2015, dated 2024).

Experiments:
Type in all cases: in vivo
[1] = system: ragweed (common ragweed, Ambrosia elatior); assay: Test A postemergence
Text: (§1) Seeds of plant species selected from barnyardgrass (Echinochloa crus-galli), Kochia (Kochia scoparia), ragweed (common ragweed, Ambrosia elatior), ryegrass, Italian (Italian ryegrass, Lolium multiflorum), crabgrass, large (Digitaria sanguinalis), giant foxtail (Setaria faberii), green foxtail (Setaria viridis), morningglory (Ipomoea spp.), pigweed (Amaranthus retroflexus), velvetleaf (Abutilon theophrasti), wheat (Triticum aestivum), and corn (Zea mays) were planted into a blend of loam soil and sand and treated preemergence with a directed soil spray using test chemicals formulated in anon-phytotoxic solvent mixture which included a surfactant.
(§2) At the same time, plants selected from these crop and weed species and also blackgrass (Alopecurus myosuroides), and Galium (catchweed bedstraw, Galium aparine) were planted in pots containing the same blend of loam soil and sand and treated with postemergence applications of test chemicals formulated in the same manner. Plants ranged in height from 2 to 10 cm and were in the one- to two-leaf stage for the postemergence treatment. Treated plants and untreated controls were maintained in a greenhouse for approximately 10 d, after which time all treated plants were compared to untreated controls and visually evaluated for injury. Plant response ratings, summarized in Table A, are based on a 0 to 100 scale where 0 is no effect and 100 is complete control. A dash (-) response means no test result.

[2] = system: wheat (Triticum aestivum); assay: Test A postemergence
Text: as §1, §2

corn (Zea mays) = assay: Test A postemergence
Text: as §1, §2

Kochia (Kochia scoparia) [3] = assay: Test A postemergence
Text: as §1, §2

[4] = system: blackgrass (Alopecurus myosuroides); assay: Test A postemergence
Text: as §1, §2

[5] = system: pigweed (Amaranthus retroflexus); assay: Test A postemergence
Text: as §1, §2

[6] = system: Galium (catchweed bedstraw, Galium aparine); assay: Test A postemergence
Text: as §1, §2

[7] = system: giant foxtail (Setaria faberii); assay: Test A postemergence
Text: as §1, §2

[8] = system: ryegrass, Italian (Italian ryegrass, Lolium multiflorum); assay: Test A postemergence
Text: as §1, §2

[9] = system: barnyardgrass (Echinochloa crus-galli); assay: Test A postemergence
Text: as §1, §2

[10] = system: ragweed (common ragweed, Ambrosia elatior); assay: Test A preemergence; conditions: Preemergence
Text: as §1, §2

Kochia (Kochia scoparia) [11] = assay: Test A preemergence; conditions: Preemergence
Text: as §1, §2

[12] = system: pigweed (Amaranthus retroflexus); assay: Test A preemergence; conditions: Preemergence
Text: as §1, §2

[13] = system: giant foxtail (Setaria faberii); assay: Test A preemergence; conditions: Preemergence
Text: as §1, §2

[14] = system: ryegrass, Italian (Italian ryegrass, Lolium multiflorum); assay: Test A preemergence; conditions: Preemergence
Text: as §1, §2

[15] = system: barnyardgrass (Echinochloa crus-galli); assay: Test A preemergence; conditions: Preemergence
Text: as §1, §2

[16] = 125 g ai/ha, postemergence, visual rating after approx. 10 d, 0 to 100 scale (0 no effect, 100 complete control)
[17] = Postemergence, 500 g ai/ha, 0 to 100 scale where 0 is no effect and 100 is complete control
[18] = 125 g ai/ha, visual injury after approximately 10 d, 0 to 100 scale where 0 is no effect and 100 is complete control
[19] = 500 g ai/ha, visual injury approx. 10 d
[20] = 1000 g ai/ha, postemergence, 0 to 100 scale, 0 no effect, 100 complete control
[21] = 1000 g ai/ha, 0 is no effect, 100 is complete control

Structure (SMILES): Cc1cc(F)ccc1NC(=O)C1C(=O)N(C)CC1c1cccc(C(F)(F)F)c1 (stereo not drawn) [Compound 575]
- Plant response rating, Ragweed [1, 16]: 0
- Plant response rating, Ragweed [1, 17]: 0
- Plant response rating, Wheat [2, 16]: 40
- Plant response rating, Wheat [2, 17]: 70
- Plant response rating, Corn (corn (Zea mays); [16]): 70
- Plant response rating, Corn (corn (Zea mays); [17]): 80
- Plant response rating, Kochia (Kochia (Kochia scoparia) [3]; [16]): 0
- Plant response rating, Kochia (Kochia (Kochia scoparia) [3]; [17]): 20
- Plant response rating, Blackgrass [4, 16]: 70
- Plant response rating, Blackgrass [4, 17]: 80
- Plant response rating, Pigweed [5, 16]: 0
- Plant response rating, Pigweed [5, 17]: 20
- Plant response rating, Galium [6, 16]: 50
- Plant response rating, Galium [6, 17]: 70
- Plant response rating, Foxtail, Giant [7, 16]: 90
- Plant response rating, Foxtail, Giant [7, 17]: 90
- Plant response rating, Ryegrass, Italian [8, 16]: 60
- Plant response rating, Ryegrass, Italian [8, 17]: 70
- Plant response rating, Barnyardgrass [9, 16]: 90
- Plant response rating, Barnyardgrass [9, 17]: 90
- Plant response rating, Ragweed [10, 18]: 0
- Ragweed plant response rating (0 to 100 scale, 0 is no effect, 100 is complete control) [10, 19]: 0
- Plant response rating, Kochia (Kochia (Kochia scoparia) [11]; [18]): 0
- Kochia plant response rating (0 to 100 scale, 0 is no effect, 100 is complete control) (Kochia (Kochia scoparia) [11]; [19]): 70
- Plant response rating, Pigweed [12, 18]: 0
- Pigweed plant response rating (0 to 100 scale, 0 is no effect, 100 is complete control) [12, 19]: 40
- Plant response rating, Foxtail, Giant [13, 18]: 90
- Foxtail, Giant plant response rating (0 to 100 scale, 0 is no effect, 100 is complete control) [13, 19]: 100
- Plant response rating, Ryegrass, Italian [14, 18]: 60
- Ryegrass, Italian plant response rating (0 to 100 scale, 0 is no effect, 100 is complete control) [14, 19]: 80
- Plant response rating, Barnyardgrass [15, 18]: 90
- Barnyardgrass plant response rating (0 to 100 scale, 0 is no effect, 100 is complete control) [15, 19]: 100

Structure (SMILES): O=C(Nc1cccc(F)c1F)C1C(=O)N(CC=CCl)CC1c1cc(F)cc(F)c1 (stereo not drawn) [Compound 512]
- Plant response rating, Ragweed [1, 20]: 0
- Plant response rating, Wheat [2, 20]: 0
- Plant response rating, Corn (corn (Zea mays); [20]): 0
- Plant response rating, Kochia (Kochia (Kochia scoparia) [3]; [20]): 0
- Plant response rating, Blackgrass [4, 20]: 0
- Plant response rating, Pigweed [5, 20]: 0
- Plant response rating, Galium [6, 20]: 0
- Plant response rating, Foxtail, Giant [7, 20]: 90
- Plant response rating, Ryegrass, Italian [8, 20]: 0
- Plant response rating, Barnyardgrass [9, 20]: 80
- Ragweed plant response rating (0 to 100 scale) [10, 21]: 0
- Kochia plant response rating (0 to 100 scale) (Kochia (Kochia scoparia) [11]; [21]): 0
- Pigweed plant response rating (0 to 100 scale) [12, 21]: 0
- Foxtail, Giant plant response rating (0 to 100 scale) [13, 21]: 90
- Ryegrass, Italian plant response rating (0 to 100 scale) [14, 21]: 0
- Barnyardgrass plant response rating (0 to 100 scale) [15, 21]: 80
